Assay results as given in patent US20150291610A1, “C20' Urea Derivatives of Vinca Alkaloids” (THE SCRIPPS RESEARCH INSTITUTE, priority 2012, published 2015).
Where two headings read alike, the source gives them in different places.

Assays:
[1] = test system: L1210 (mouse lymphocytic leukemia) cells; settings: reported in Leggans et al., Org. Lett. 2012; cited from earlier work
[2] = test system: HCT116 (human colorectal carcinoma) cells; settings: cited from earlier work; for IC50: reported in Leggans et al., Org. Lett. 2012
[3] = test system: HCT116/VM46 (vinblastine-resistant strain of HCT116, Pgp over-expression) cells; settings: read-out: IC50 (nM) HCT116/VM46; reported in Leggans et al., Org. Lett. 2012; cited from earlier work
[4] = test system: HCT116/VM46 (vinblastine-resistant strain of HCT116, Pgp over-expression) cells; test: Cell growth inhibition assay, HCT116/VM46
Method: (§1) A population of cells (>1×10^6 cells/mL as determined with a hemocytometer) was diluted with an appropriate amount of Dulbecco-modified Eagle Medium (DMEM, Gibco) containing 10% fetal bovine serum (FBS, Gibco) to a final concentration of 30,000 cells/mL.
(§2) To each well of a 96-well plate (Corning Costar), 100 μL of the cell-media solution was added with a multichannel pipette. The cultures were incubated at 37° C. in an atmosphere of 5% CO2 and 95% humidified air for 24 hours. The test compounds were added to the plate as follows: test substances were diluted in DMSO to a concentration of 1 mM and 10-fold serial dilutions were performed on a separate 96-well plate. Fresh culture medium (100 μL) was added to each well of cells to constitute 200 μL of medium per well followed by 2 μL of each test agent. Compounds were tested in duplicate (n=2-8 times) at six concentrations between 0-1,000 nM or 0-10,000 nM. Following addition, cultures were incubated for an additional 72 hours.
(§3) The plates were incubated at 37° C. for either 5 minutes (L1210) or 15 minutes (HCT116 and HCT116/VM46).

[5] = test system: HCT116 (human colorectal carcinoma) cells; test: Cell growth inhibition assay, HCT116; assay type: cell-based
Method: as §1, §2, §3

[6] = test system: L1210 (mouse lymphocytic leukemia) cells; test: Cell growth inhibition assay, L1210; assay type: cell-based; settings: L1210 murine leukemia cell line; avg of 4-16 determinations
Method: as §1, §2, §3

[7] = read-out: IC50 (nM) HCT116/VM46, resistant human colon cancer cell line, Pgp over-expression
[8] = HCT116 human colon cancer cell line, avg of 4-16 determinations, read-out: IC50 (nM) HCT116

Row | SMILES | IC50 [1] | IC50 [2] | IC50 [3] | IC50 [4, 7] | IC50 [5, 8] | IC50 [6] | further results
1 | CCC1CC2CN(CCc3c([nH]c4ccccc34)C(C(=O)OC)(c3cc4c(cc3OC)N(C)C3C(O)(C(=O)OC)C(OC(C)=O)C5(CC)C=CCN6CCC43C65)C2)C1 (stereo not shown) [Compound 3, 20′-deoxyvinblastine] | 50 nM | 60 nM | 600 nM |  |  |  | 
2 | CC[C@]1(N=C=S)C[C@@H]2CN(CCc3c([nH]c4ccccc34)[C@@](C(=O)OC)(c3cc4c(cc3OC)N(C)[C@H]3[C@@](O)(C(=O)OC)[C@H](OC(C)=O)[C@]5(CC)C=CCN6CC[C@]43[C@@H]65)C2)C1 [Compound 5, 20′-isothiocyano-vinblastine] | 590 nM | 530 nM | 7000 nM |  |  |  | 
3 | CC[C@]1(N)C[C@H]2CN(CCc3c([nH]c4ccccc34)[C@@](C(=O)OC)(c3cc4c(cc3OC)N(C)[C@H]3[C@@](O)(C(=O)OC)[C@H](OC(C)=O)[C@]5(CC)C=CCN6CC[C@]43[C@@H]65)C2)C1 [Compound 7, 20′-aminovinblastine] | 640 nM | 600 nM | > 10000 nM | > 10000 nM | 600 nM |  | 
4 | CCC1(NC(C)=O)CC2CN(CCc3c([nH]c4ccccc34)C(C(=O)OC)(c3cc4c(cc3OC)N(C)C3C(O)(C(=O)OC)C(OC(C)=O)C5(CC)C=CCN6CCC43C65)C2)C1 (stereo not shown) [Compound 9] | 65 nM | 90 nM | 7500 nM |  |  |  | 
5 | CCC1(NC(=O)OC)CC2CN(CCc3c([nH]c4ccccc34)C(C(=O)OC)(c3cc4c(cc3OC)N(C)C3C(O)(C(=O)OC)C(OC(C)=O)C5(CC)C=CCN6CCC43C65)C2)C1 (stereo not shown) [Compound 10] | 50 nM | 75 nM | 2600 nM |  |  |  | 
6 | CC[C@]1(NC(N)=O)C[C@@H]2CN(CCc3c([nH]c4ccccc34)[C@@](C(=O)OC)(c3cc4c(cc3OC)N(C)[C@H]3[C@@](O)(C(=O)OC)[C@H](OC(C)=O)[C@]5(CC)C=CCN6CC[C@]43[C@@H]65)C2)C1 [Compound 11, reference compound] | 40 nM | 7.5 nM | 4400 nM |  | 7.5 nM | 40 nM | IC50 [4]: 4400 nM
7 | CC[C@]1(NC(N)=S)C[C@@H]2CN(CCc3c([nH]c4ccccc34)[C@@](C(=O)OC)(c3cc4c(cc3OC)N(C)[C@H]3[C@@](O)(C(=O)OC)[C@H](OC(C)=O)[C@]5(CC)C=CCN6CC[C@]43[C@@H]65)C2)C1 [Compound 12] | 55 nM | 7.7 nM | 2000 nM | 2000 nM | 7.7 nM |  | 
8 | CC[C@]1(NC(=O)Nc2ccccc2OC)C[C@@H]2CN(CCc3c([nH]c4ccccc34)[C@@](C(=O)OC)(c3cc4c(cc3OC)N(C)[C@H]3[C@@](O)(C(=O)OC)[C@H](OC(C)=O)[C@]5(CC)C=CCN6CC[C@]43[C@@H]65)C2)C1 [Compound 30] |  |  |  | 65 nM |  | 4.8 nM | fold improvement over vinblastine, HCT116/VM46 ([4]; relative to vinblastine): 10 fold; fold more potent than vinblastine, HCT116 ([5]; relative to vinblastine): ~10 fold; IC50 ([5]; text values in pM, read-out: IC50 HCT116): 0.77 nM
9 | CC[C@]1(NC(=O)NCc2ccccc2)C[C@@H]2CN(CCc3c([nH]c4ccccc34)[C@@](C(=O)OC)(c3cc4c(cc3OC)N(C)[C@H]3[C@@](O)(C(=O)OC)[C@H](OC(C)=O)[C@]5(CC)C=CCN6CC[C@]43[C@@H]65)C2)C1 [Compound 31] |  |  |  | 740 nM | 7.3 nM | 6.4 nM | 
10 | CC[C@]1(NC(=O)NCCc2ccccc2)C[C@@H]2CN(CCc3c([nH]c4ccccc34)[C@@](C(=O)OC)(c3cc4c(cc3OC)N(C)[C@H]3[C@@](O)(C(=O)OC)[C@H](OC(C)=O)[C@]5(CC)C=CCN6CC[C@]43[C@@H]65)C2)C1 [Compound 32] |  |  |  | 590 nM | 6.3 nM | 6.3 nM | 
11 | CC[C@]1(NC(=O)NCc2ccccn2)C[C@@H]2CN(CCc3c([nH]c4ccccc34)[C@@](C(=O)OC)(c3cc4c(cc3OC)N(C)[C@H]3[C@@](O)(C(=O)OC)[C@H](OC(C)=O)[C@]5(CC)C=CCN6CC[C@]43[C@@H]65)C2)C1 [Compound 33] |  |  |  | 670 nM | 5.6 nM | 24 nM | 
12 | CC[C@]1(NC(=O)NCc2ccco2)C[C@@H]2CN(CCc3c([nH]c4ccccc34)[C@@](C(=O)OC)(c3cc4c(cc3OC)N(C)[C@H]3[C@@](O)(C(=O)OC)[C@H](OC(C)=O)[C@]5(CC)C=CCN6CC[C@]43[C@@H]65)C2)C1 [Compound 34] |  |  |  | 530 nM | 5.1 nM | 5.4 nM | 
13 | CC[C@]1(NC(=O)N2CCOCC2)C[C@@H]2CN(CCc3c([nH]c4ccccc34)[C@@](C(=O)OC)(c3cc4c(cc3OC)N(C)[C@H]3[C@@](O)(C(=O)OC)[C@H](OC(C)=O)[C@]5(CC)C=CCN6CC[C@]43[C@@H]65)C2)C1 [Compound 41] |  |  |  | 360 nM | 4.5 nM | 5.3 nM | 
14 | CC[C@]1(NC(=O)N2CCCCC2)C[C@@H]2CN(CCc3c([nH]c4ccccc34)[C@@](C(=O)OC)(c3cc4c(cc3OC)N(C)[C@H]3[C@@](O)(C(=O)OC)[C@H](OC(C)=O)[C@]5(CC)C=CCN6CC[C@]43[C@@H]65)C2)C1 [Compound 42] |  |  |  | 50 nM | 3.9 nM | 5.5 nM | activity difference between sensitive HCT116 and vinblastine-resistant HCT116/VM46 ([4]; HCT116/VM46 vs HCT116): 10 fold
15 | CC[C@]1(O)C[C@@H]2CN(CCc3c([nH]c4ccc(F)cc34)[C@@](C(=O)OC)(c3cc4c(cc3OC)N(C)[C@H]3[C@@](O)(C(=O)OC)[C@H](OC(C)=O)[C@]5(CC)C=CCN6CC[C@]43[C@@H]65)C2)C1 [Compound 48, reference compound] |  |  |  | 80 nM | 0.8 nM |  | fold improvement in activity over vinblastine ([2]; Gotoh et al., ACS Med. Chem. Lett. 2011): 8 fold
16 | CC[C@]1(NC(=O)N2CCSCC2)C[C@@H]2CN(CCc3c([nH]c4ccccc34)[C@@](C(=O)OC)(c3cc4c(cc3OC)N(C)[C@H]3[C@@](O)(C(=O)OC)[C@H](OC(C)=O)[C@]5(CC)C=CCN6CC[C@]43[C@@H]65)C2)C1 [Compound 53] |  |  |  | 50 nM | 0.88 nM | 2.1 nM | 
17 | CC[C@]1(NC(=O)N2CCN(C)CC2)C[C@@H]2CN(CCc3c([nH]c4ccccc34)[C@@](C(=O)OC)(c3cc4c(cc3OC)N(C)[C@H]3[C@@](O)(C(=O)OC)[C@H](OC(C)=O)[C@]5(CC)C=CCN6CC[C@]43[C@@H]65)C2)C1 [Compound 54] |  |  |  | 710 nM | 3.4 nM | 7.7 nM | 
18 | CC[C@]1(NC(=O)N2CCC(c3ccccc3)CC2)C[C@@H]2CN(CCc3c([nH]c4ccccc34)[C@@](C(=O)OC)(c3cc4c(cc3OC)N(C)[C@H]3[C@@](O)(C(=O)OC)[C@H](OC(C)=O)[C@]5(CC)C=CCN6CC[C@]43[C@@H]65)C2)C1 [Compound 56] |  |  |  | 55 nM | 3.1 nM | 5.3 nM | 
19 | CC[C@]1(NC(=O)N2Cc3ccc(OC)cc3C2)C[C@@H]2CN(CCc3c([nH]c4ccccc34)[C@@](C(=O)OC)(c3cc4c(cc3OC)N(C)[C@H]3[C@@](O)(C(=O)OC)[C@H](OC(C)=O)[C@]5(CC)C=CCN6CC[C@]43[C@@H]65)C2)C1 [Compound 59] |  |  |  | 8.7 nM | 0.69 nM | 0.61 nM | 
20 | CCC1(N=[N+]=[N-])CC2CN(CCc3c([nH]c4ccccc34)C(C(=O)OC)(c3cc4c(cc3OC)N(C)C3C(O)(C(=O)OC)C(OC(C)=O)C5(CC)C=CCN6CCC43C65)C2)C1 (stereo not shown) [Compound N3] | 670 nM | 690 nM | 5500 nM |  |  |  | 
21 | CCC1(NC=O)CC2CN(CCc3c([nH]c4ccccc34)C(C(=O)OC)(c3cc4c(cc3OC)N(C)C3C(O)(C(=O)OC)C(OC(C)=O)C5(CC)C=CCN6CCC43C65)C2)C1 (stereo not shown) [NHCHO] | 65 nM | 85 nM | 6500 nM |  |  |  | 
22 | CCC1(NC(=O)C(F)(F)F)CC2CN(CCc3c([nH]c4ccccc34)C(C(=O)OC)(c3cc4c(cc3OC)N(C)C3C(O)(C(=O)OC)C(OC(C)=O)C5(CC)C=CCN6CCC43C65)C2)C1 (stereo not shown) [NHCOCF3] | 660 nM | 690 nM | 8100 nM |  |  |  | 
23 | CCC1(NC(=O)NC(=O)C(Cl)(Cl)Cl)CC2CN(CCc3c([nH]c4ccccc34)C(C(=O)OC)(c3cc4c(cc3OC)N(C)C3C(O)(C(=O)OC)C(OC(C)=O)C5(CC)C=CCN6CCC43C65)C2)C1 (stereo not shown) [NHCONHCOCCl3] | 45 nM | 6 nM | 1600 nM |  |  |  | 
24 | CCC1(SC#N)CC2CN(CCc3c([nH]c4ccccc34)C(C(=O)OC)(c3cc4c(cc3OC)N(C)C3C(O)(C(=O)OC)C(OC(C)=O)C5(CC)C=CCN6CCC43C65)C2)C1 (stereo not shown) [SCN] | 560 nM | 550 nM | 2900 nM |  |  |  | 
25 | CC1(C)CCCC(C)(C)N1[O] [TEMPO] | 4000 nM | 3800 nM | 5600 nM |  |  |  | 
